Several values for one entry are separate records, joined by “and”; a condition that tells them apart may be missing. Identical values can stand only once. Entries after “also recorded” stand apart in the source; their conditions may differ. Like-named read-outs stand apart in the source and are kept apart here.
How the values were obtained:
[1] = target: T1, human NE (Homo sapiens, UniProt P08246); settings: cited from earlier work
T1 sequence (P08246 30-267): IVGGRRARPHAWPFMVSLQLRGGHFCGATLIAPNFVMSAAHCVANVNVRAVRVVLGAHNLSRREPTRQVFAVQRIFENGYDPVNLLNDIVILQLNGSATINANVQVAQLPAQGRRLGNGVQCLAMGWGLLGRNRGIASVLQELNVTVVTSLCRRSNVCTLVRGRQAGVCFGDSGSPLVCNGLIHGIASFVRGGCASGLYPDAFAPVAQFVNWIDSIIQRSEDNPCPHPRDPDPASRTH

[2] = test system: patients with BOS and chronic GVHD after HCT
[3] = target: T2, NE (Homo sapiens, UniProt P08246); settings: whole-blood assay; cited from earlier work
[4] = target: T3, murine NE (Mus musculus, UniProt Q3UP87); settings: cited from earlier work
T3 sequence (Q3UP87 27-265): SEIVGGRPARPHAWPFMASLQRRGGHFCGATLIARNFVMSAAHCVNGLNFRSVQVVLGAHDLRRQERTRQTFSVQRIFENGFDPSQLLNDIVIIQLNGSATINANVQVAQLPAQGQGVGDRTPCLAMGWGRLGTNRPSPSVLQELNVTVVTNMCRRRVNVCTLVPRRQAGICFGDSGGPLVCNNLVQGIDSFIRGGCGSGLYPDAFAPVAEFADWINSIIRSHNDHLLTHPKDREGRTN

[5] = target: T2, NE; settings: cell-associated assay; cited from earlier work
[6] = test system: murine model of GVHD; assay type: in vivo
[7] = target: T1, human NE; settings: read-out: binding affinity KD; cited from earlier work

In the case of `Cc1c(-c2ccnn2C)cc(C(=O)NCc2ccc(S(C)(=O)=O)cn2)c(=O)n1-c1cccc(C(F)(F)F)c1` [alvelestat, N-{[5-(methanesulfonyl)pyridin-2-yl]methyl}-6-methyl-5-(1-methyl-1H-pyrazol-5-yl)-2-oxo-1-[3-(trifluoromethyl)phenyl]-1,2-dihydropyridine-3-carboxamide], the Ki [1] is given as 0.0094 µM, the pIC50 [1] is given as 7.9 and the reversibility of inhibition [1] is given as “rapidly reversible”. For the same compound, the “LSS score for lung/breathing at C5” value ([2]; Lee cGVHD Symptom Scale, C5 = continuation dosing period up to 6 months, individual patients #1-7) was 7 and 3 (2×) and 11 and 2 and 5 and 4, the “LSS score for lung/breathing at the end of treatment” value ([2]; Lee cGVHD Symptom Scale, individual patients #1-7) was 8 and 2 and 11 and 3 and 7 and 5 and 1 and the “patients with progressive disease” value ([2]; NIH chronic GVHD consensus criteria, decline in FEV1 after pneumonia, of 7 patients) was 1 patient. For the same compound, the “grade 2 adverse event possibly related: ALT or AST elevation” value ([2]; human, in vivo) was 3 patients, the “grade 2 adverse event possibly related: increased creatinine” value ([2]; human, in vivo) was 3 patients and the “grade 2 adverse event possibly related: upper respiratory infection” value ([2]; human, in vivo) was 3 patients. For the same compound, the “grade 3 adverse event possibly related: gastroenteritis and vomiting requiring hospitalization” value ([2]; human, in vivo) was 1 patient, the “grade 3 adverse event possibly related: pneumonia” value ([2]; human, in vivo) was 1 patient and the “patients requiring dose interruptions” value ([2]; human, in vivo) was “Four”. The “patients requiring dose reduction” value ([2]; human, in vivo) was 1, the “patients who discontinued treatment prior to end of study” value ([2]; human, in vivo) was “Four” and the “maximum dose to which all 7 patients tolerated dose escalation” value ([2]; human, in vivo, po, 8 weeks) was 240 mg twice daily. For the same compound, the “End of treatment FEV1 % predicted” value ([2]; individual patients (patient #1-7)) was 47% and 55% and 40% and 46% and 38% and 41% and 73%, the “patients with improvement in Lee chronic GVHD symptom scale lung score” value ([2]; of 7 patients, 2 during the 6 month treatment period, 2 at end of treatment) was 4 patients and the “maximum tolerated dose (MTD)” value ([2]; oral, intra-patient escalation 60 to 240 mg twice daily, 7 patients) was “not reached”. For the same compound, the “improvement in FEV1” value ([2]; seen in 2 of 7 patients) was 9%, the IC50 [3] was 0.044 µM and the pIC50 [3] was 7.36. For the same compound, the “crossover potency for NE from other species” value ([4]; NE from other species, including mice) was “good crossover potency”, the pIC50 ([4]; murine NE) was 6.5 and the IC50 [5] was 0.048 µM. For the same compound, the pIC50 [5] was 7.32, the “histological scoring of GI GVHD” value ([6]; 20 mg/kg diet vs T2e6, sacrificed Day 4, blinded pathologist, n=5/group, p=0.08, FIG. 4) was “trend toward increased pathology in the T2e6 group; also recorded: markedly less GVHD” and the survival ([6]; T-cell dose experiment, 20 mg/kg in pre-mixed diet pellets, vs 2x10^6 T cells alone, p<0.001, n=5/group, FIG. 2A, 20 mg/kg) was “significantly improved survival; also recorded: better survival”. For the same compound, the “toxicity in skin or liver (histology)” value ([6]; mice receiving T2e6+20 mg/kg diet, Day 4) was “no toxicity was observed”, the survival ([6]; powder mixed with wet food, days -1 to 45, TCDBM+T2e6+20 mg/kg wet food vs TCDBM+T2e6, log-rank p=0.01, FIG. 1B) was “significant improvements in survival” and the survival ([6]; pre-mixed diet pellets, days -1 to 45, TCDBM+T2e6+20 mg/kg diet vs TCDBM+T2e6, log-rank p=0.001, FIG. 1A) was “significant improvements in survival”. For the same compound, the “dose-response in improvement in survival, body weight or GVHD score” value ([6]; three doses tested: 20, 50, 200 mg/kg per day, FIG. 1C-1F) was “does not appear to be a dose-response” and the Kd [7] was 0.0095 µM.

— patent US20220354833A1, “ALVELESTAT FOR USE IN THE TREATMENT OF GRAFT REJECTION, BRONCHIOLITIS OBLITERANS SYNDROME AND GRAFT VERSUS HOST DISEASE” (MEREO BIOPHARMA 4 LIMITED, priority 2019, published 2022)
